{"source": "patent US6469022B1", "about": "“Method, compositions and kits for increasing the oral bioavailability of pharmaceutical agents” (Smith Kline Beecham, Corporation, priority 1997, dated 2002)", "origin": "cited, not measured here", "key": {"[1]": {"settings": "WO97/15269, Broder et al"}, "tumour": {"system": "tumour", "settings": "up to 160 mg/kg/day, Stuffness et al."}, "metastatic breast cancer": {"system": "metastatic breast cancer", "settings": "taxane-failure patients with metastatic breast cancer; continuous 96-hour infusion every three weeks"}, "[2]": {"settings": "oral administration"}, "P-glycoprotein": {"target": "P-glycoprotein (Homo sapiens, UniProt P08183)", "sequence (P08183 whole entry)": "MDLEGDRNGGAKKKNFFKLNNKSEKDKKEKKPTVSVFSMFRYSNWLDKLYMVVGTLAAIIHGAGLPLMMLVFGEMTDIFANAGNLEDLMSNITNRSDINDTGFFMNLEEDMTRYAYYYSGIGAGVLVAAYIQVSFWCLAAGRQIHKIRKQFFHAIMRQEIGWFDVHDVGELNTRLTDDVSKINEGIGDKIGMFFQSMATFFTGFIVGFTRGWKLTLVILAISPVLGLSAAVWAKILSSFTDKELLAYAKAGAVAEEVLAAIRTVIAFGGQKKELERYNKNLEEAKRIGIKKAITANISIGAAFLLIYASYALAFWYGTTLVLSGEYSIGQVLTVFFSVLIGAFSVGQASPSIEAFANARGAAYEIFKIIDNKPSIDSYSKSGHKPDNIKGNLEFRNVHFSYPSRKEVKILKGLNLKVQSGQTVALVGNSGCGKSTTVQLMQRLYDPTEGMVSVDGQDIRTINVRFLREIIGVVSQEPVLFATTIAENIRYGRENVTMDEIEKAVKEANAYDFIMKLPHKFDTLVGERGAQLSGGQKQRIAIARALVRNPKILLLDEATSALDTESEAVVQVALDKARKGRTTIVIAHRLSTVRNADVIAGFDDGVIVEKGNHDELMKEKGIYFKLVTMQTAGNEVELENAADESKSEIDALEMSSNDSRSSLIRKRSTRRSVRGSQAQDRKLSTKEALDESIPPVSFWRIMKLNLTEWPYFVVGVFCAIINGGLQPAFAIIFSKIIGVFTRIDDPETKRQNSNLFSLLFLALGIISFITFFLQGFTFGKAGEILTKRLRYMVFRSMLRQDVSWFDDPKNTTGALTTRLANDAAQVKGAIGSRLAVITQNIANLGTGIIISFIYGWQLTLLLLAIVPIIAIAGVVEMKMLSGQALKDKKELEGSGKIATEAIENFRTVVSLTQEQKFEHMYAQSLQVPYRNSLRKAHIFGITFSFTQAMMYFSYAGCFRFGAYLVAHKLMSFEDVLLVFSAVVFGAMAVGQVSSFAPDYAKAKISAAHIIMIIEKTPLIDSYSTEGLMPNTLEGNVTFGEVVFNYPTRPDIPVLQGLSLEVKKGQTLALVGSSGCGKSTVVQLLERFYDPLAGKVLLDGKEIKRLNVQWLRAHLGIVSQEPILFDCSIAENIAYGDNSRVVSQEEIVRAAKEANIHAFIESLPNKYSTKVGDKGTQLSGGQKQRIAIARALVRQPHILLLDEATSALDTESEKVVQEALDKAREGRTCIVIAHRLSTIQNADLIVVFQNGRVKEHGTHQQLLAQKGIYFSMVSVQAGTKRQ"}, "[3]": {"settings": "in vivo"}}, "note": "“Also recorded” adds a separate entry of the source."}
{"smiles": "CC(=O)[C@H]1CC[C@H]2[C@@H]3CCC4=CC(=O)CC[C@]4(C)[C@H]3CC[C@]12C", "note": "[progesterone]", "values": [{"measurement": "oral bioavailability-enhancing activity", "setting": "[1]", "result": "none"}]}
{"smiles": "OCCN(CCO)c1nc(N2CCCCC2)c2nc(N(CCO)CCO)nc(N3CCCCC3)c2n1", "note": "[dipyridamole]", "values": [{"measurement": "oral bioavailability-enhancing activity", "setting": "[1]", "result": "less enhancing activity"}]}
{"smiles": "CC(=O)O[C@H]1C(=O)[C@@]2(C)[C@H]([C@H](OC(=O)c3ccccc3)[C@]3(O)C[C@H](OC(=O)[C@H](O)[C@@H](NC(=O)c4ccccc4)c4ccccc4)C(C)=C1C3(C)C)[C@]1(OC(C)=O)CO[C@@H]1C[C@@H]2O", "note": "[paclitaxel, 5β,20-epoxy-1,2α,4,7β,10β,13α-hexa-hydroxytax-11-en-9-one 4,10-diacetate 2-benzoate 13-ester with (2R,3S)-N-benzoyl-3-phenylisoserine]", "values": [{"measurement": "antitumour activity on oral administration", "setting": "tumour", "result": "no evidence of antitumour activity"}, {"measurement": "response rate", "setting": "metastatic breast cancer", "result": 27, "unit": "%"}, {"measurement": "level at which inhibition of protein isoprenylation occurs", "setting": "protein isoprenylation", "result": "about 0.03 μM; also recorded: about 25 ng/ml"}, {"measurement": "absorbed when administered orally", "setting": "[2]", "result": "less than 1%"}, {"measurement": "level at which inhibition of tubulin disassembly occurs", "setting": "tubulin", "result": "about 0.1 μM; also recorded: about 85 ng/ml"}]}
{"smiles": "COc1cc2c(cc1OC)CN(CCc1ccc(NC(=O)c3cccc4c(=O)c5cccc(OC)c5[nH]c34)cc1)CC2", "note": "[GF120918, 9,10-dihydro-5-methoxy-9oxo-N-[4-[2-(1,2,3,4-tetrahydro-6,7,-dimethoxy-2-isoquinolinyl)ethyl]phenyl]-4-acridinecarboxamide]", "values": [{"measurement": "P-glycoprotein inhibition", "setting": "P-glycoprotein", "result": "P-glycoprotein inhibitor"}, {"measurement": "bioavailability across the gut", "setting": "[3]", "result": "very poor bioavailability"}]}
{"smiles": "CC(=O)N1CCN(c2ccc(OCC3COC(Cn4ccnc4)(c4ccc(Cl)cc4Cl)O3)cc2)CC1", "note": "(stereo not shown) [ketoconazole]", "values": [{"measurement": "oral bioavailability-enhancing activity", "setting": "[1]", "result": "significant"}]}
